Data reported in patent publication US10414811B2, “Protease-resistant lipidated GLP-1 analogs” (MEDIMMUNE LIMITED, priority 2015, dated 2019).
Where two headings read alike, the source gives them in different places. Numbered stars: 1 amine (or outer) side, 2 acyl side, 3 side chain; on linkers, the order of the positions; unused ones are H or OH. Square brackets hold non-standard residues; d marks the D form. Side chains are listed from the residue outwards. Peptide text beside a SMILES is read from it. * marks the point of attachment. γGlu = O=C(O)[C@H](CCC(=O)[*:2])N[*:1]; Palmitoyl = CCCCCCCCCCCCCCCC(=O)*; αMeF = C[C@](N)(Cc1ccccc1)C(=O)O; αMeK = C[C@](N)(CCCCN)C(=O)O; αMeS = C[C@](N)(CO)C(=O)O; Aib = CC(C)(N)C(=O)O

Tests used:
Type in all cases: cell-based
[1] = biological target: T1, human glucose-dependent insulinotropic peptide receptor (GIPR) (Homo sapiens, UniProt P48546); assay: cAMP assay, human GIPR cells; conditions: cAMP assay
T1 construct: expressed in transfected cells
T1 sequence (P48546 22-466): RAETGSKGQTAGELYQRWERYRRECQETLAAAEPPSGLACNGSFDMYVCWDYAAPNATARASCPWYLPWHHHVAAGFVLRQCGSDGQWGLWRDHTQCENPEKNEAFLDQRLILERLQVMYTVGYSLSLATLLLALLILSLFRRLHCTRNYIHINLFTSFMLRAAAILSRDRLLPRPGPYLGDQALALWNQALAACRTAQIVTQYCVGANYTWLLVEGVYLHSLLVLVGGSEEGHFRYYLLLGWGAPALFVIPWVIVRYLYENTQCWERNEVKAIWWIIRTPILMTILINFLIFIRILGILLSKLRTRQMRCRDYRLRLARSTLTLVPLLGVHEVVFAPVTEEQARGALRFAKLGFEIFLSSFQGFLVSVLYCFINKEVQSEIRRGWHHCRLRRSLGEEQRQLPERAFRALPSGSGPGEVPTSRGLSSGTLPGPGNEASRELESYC
Outline: (§1)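 Peptide-stimulated cAMP measured by two-step HTRF after a 30 min room-temperature incubation with receptor-expressing cells (hGLP-1R, hGIPR at 1×10^5 cells/ml; hGCGR at 2×10^5 cells/ml). Duplicate dilutions; EC50 from 4-parameter logistic fit of % Delta F.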

[2] = biological target: T2, human GLP-1 receptor (GLP-1R) (Homo sapiens, UniProt P43220); assay: cAMP assay, human GLP-1R cells
T2 construct: expressed in transfected cells
Outline: as §1

[3] = biological target: T3, human glucagon receptor (GCGR) (Homo sapiens, UniProt P47871); assay: cAMP assay, human GCGR cells; conditions: cAMP assay
T3 construct: expressed in transfected cells
Outline: as §1

[4] = first determination (n1), read-out: Primary assay EC50 GIP-R (n1)
[5] = second determination (n2), read-out: Primary assay EC50 GIP-R (n2)
[6] = cAMP assay, first determination (n1), read-out: Primary assay EC50 GLP-1R n1
[7] = cAMP assay, second determination (n2), read-out: Primary assay EC50 GLP-1R n2
[8] = mean of n1 and n2, read-out: Mean pM GLP-1R
[9] = first determination (n1), read-out: Primary assay EC50 Gluc-R (n1)
[10] = second determination (n2), read-out: Primary assay EC50 Gluc-R (n2)

T2 sequence (P43220 24-463): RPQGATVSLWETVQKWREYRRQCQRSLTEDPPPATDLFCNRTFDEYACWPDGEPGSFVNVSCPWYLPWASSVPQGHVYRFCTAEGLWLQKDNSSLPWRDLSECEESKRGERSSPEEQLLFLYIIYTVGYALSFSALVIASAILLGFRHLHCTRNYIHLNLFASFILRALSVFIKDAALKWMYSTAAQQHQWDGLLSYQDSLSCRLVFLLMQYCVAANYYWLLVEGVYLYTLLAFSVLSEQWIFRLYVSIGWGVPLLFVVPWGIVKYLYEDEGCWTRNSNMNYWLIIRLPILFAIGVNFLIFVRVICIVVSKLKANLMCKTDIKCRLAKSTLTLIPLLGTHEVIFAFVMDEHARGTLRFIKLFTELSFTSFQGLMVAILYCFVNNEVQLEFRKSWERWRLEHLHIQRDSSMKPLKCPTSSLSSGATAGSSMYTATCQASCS
T3 sequence (P47871 26-477): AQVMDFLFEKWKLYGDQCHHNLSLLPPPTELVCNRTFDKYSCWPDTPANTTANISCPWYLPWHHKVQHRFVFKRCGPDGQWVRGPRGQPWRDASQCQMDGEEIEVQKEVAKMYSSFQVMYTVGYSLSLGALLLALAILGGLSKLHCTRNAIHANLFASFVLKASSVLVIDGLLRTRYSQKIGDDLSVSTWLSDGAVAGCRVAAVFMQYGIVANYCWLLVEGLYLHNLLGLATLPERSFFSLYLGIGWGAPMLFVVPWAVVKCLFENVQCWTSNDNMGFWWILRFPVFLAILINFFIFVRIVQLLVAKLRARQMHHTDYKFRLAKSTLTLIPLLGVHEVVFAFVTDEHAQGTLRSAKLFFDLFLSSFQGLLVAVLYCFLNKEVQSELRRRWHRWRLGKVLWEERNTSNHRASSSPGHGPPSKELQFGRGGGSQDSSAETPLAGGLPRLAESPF

| EC50 [1, 4] [nM] | EC50 [1, 5] [nM] | EC50 [2, 6] [pM] | EC50 [2, 7] [pM] | EC50 [2, 8] [pM] | EC50 [3, 9] [nM] | EC50 [3, 10] [nM] | Compound |
| --- | --- | --- | --- | --- | --- | --- | --- |
| ≥ 94 | ≥ 28 | 240 | 51 | 147 | ≥ 94 | ≥ 28 | CCCCCCCCCCCCCCCC(=O)N[C@@H](CCC(=O)NCCCC[C@H](NC(=O)[C@H](C)NC(=O)[C@H](C)NC(=O)[C@H](CCC(=O)O)NC(=O)CNC(=O)[C@H](CCC(=O)O)NC(=O)[C@H](CC(C)C)NC(=O)[C@](C)(Cc1ccccc1)NC(=O)[C@H](CO)NC(=O)[C@H](CO)NC(=O)[C@@H](NC(=O)[C@H](CC(=O)O)NC(=O)[C@H](CO)NC(=O)[C@@H](NC(=O)[C@](C)(Cc1ccccc1)NC(=O)[C@H](CO)NC(=O)CNC(=O)[C@H](CCC(=O)O)NC(=O)C(C)(C)NC(=O)[C@@H](N)Cc1c[nH]cn1)[C@@H](C)O)C(C)C)C(=O)N[C@@H](CCC(=O)O)C(=O)N[C@@](C)(Cc1ccccc1)C(=O)N[C@H](C(=O)N[C@@H](C)C(=O)N[C@@](C)(Cc1ccccc1)C(=O)N[C@H](C(=O)N[C@H](C(=O)N[C@@H](CCCCN)C(=O)NCC(=O)NCC(N)=O)C(C)C)C(C)C)[C@@H](C)CC)C(=O)O [compound 41] |
| ≥ 27 | ≥ 27 | 74 | 92 | 83 | ≥ 27 | ≥ 27 | CCCCCCCCCCCCCCCC(=O)N[C@@H](CCC(=O)NCCCC[C@H](NC(=O)CNC(=O)[C@](C)(CCCCN)NC(=O)[C@@H](NC(=O)[C@@H](NC(=O)[C@](C)(Cc1ccccc1)NC(=O)[C@H](C)NC(=O)[C@@H](NC(=O)[C@](C)(Cc1ccccc1)NC(=O)[C@H](CCC(=O)O)NC(=O)[C@](C)(CCCCN)NC(=O)[C@H](C)NC(=O)[C@H](C)NC(=O)[C@H](CCC(=O)O)NC(=O)CNC(=O)[C@H](CCC(=O)O)NC(=O)[C@H](CC(C)C)NC(=O)[C@](C)(Cc1ccccc1)NC(=O)[C@H](CO)NC(=O)[C@](C)(CO)NC(=O)[C@@H](NC(=O)[C@H](CC(=O)O)NC(=O)[C@H](CO)NC(=O)[C@@H](NC(=O)[C@](C)(Cc1ccccc1)NC(=O)[C@H](CO)NC(=O)CNC(=O)[C@H](CCC(=O)O)NC(=O)C(C)(C)NC(=O)[C@@H](N)Cc1c[nH]cn1)[C@@H](C)O)C(C)C)[C@@H](C)CC)C(C)C)C(C)C)C(N)=O)C(=O)O [compound 70] (H-H[Aib]EGS[αMeF]TSDV[αMeS]S[αMeF]LEGEAA[αMeK]E[αMeF]IA[αMeF]VV[αMeK]GK([γGlu-Palmitoyl])-NH2; N-terminus assumed) |
| ≥ 28 | ≥ 28 | 130 | 160 | 146 | ≥ 28 | ≥ 28 | CCCCCCCCCCCCCCCC(=O)N[C@@H](CCC(=O)NCCCC[C@H](NC(=O)[C@@H](NC(=O)[C@](C)(Cc1ccccc1)NC(=O)[C@H](C)NC(=O)[C@@H](NC(=O)[C@](C)(Cc1ccccc1)NC(=O)[C@H](CCC(=O)O)NC(=O)[C@](C)(CCCCN)NC(=O)[C@H](C)NC(=O)[C@H](C)NC(=O)[C@H](CCC(=O)O)NC(=O)CNC(=O)[C@H](CCC(=O)O)NC(=O)[C@H](CC(C)C)NC(=O)[C@](C)(Cc1ccccc1)NC(=O)[C@H](CO)NC(=O)[C@](C)(CO)NC(=O)[C@@H](NC(=O)[C@H](CC(=O)O)NC(=O)[C@H](CO)NC(=O)[C@@H](NC(=O)[C@](C)(Cc1ccccc1)NC(=O)[C@H](CO)NC(=O)CNC(=O)[C@H](CCC(=O)O)NC(=O)C(C)(C)NC(=O)[C@@H](N)Cc1c[nH]cn1)[C@@H](C)O)C(C)C)[C@@H](C)CC)C(C)C)C(=O)N[C@@](C)(CCCCN)C(=O)NCC(=O)NCC(N)=O)C(=O)O [compound 73] (H-H[Aib]EGS[αMeF]TSDV[αMeS]S[αMeF]LEGEAA[αMeK]E[αMeF]IA[αMeF]VK([γGlu-Palmitoyl])[αMeK]GG-NH2) |
| ≥ 28 | ≥ 28 | 18 | 9.3 | 14 | ≥ 28 | ≥ 28 | CCCCCCCCCCCCCCCC(=O)N[C@@H](CCC(=O)NCCCC[C@H](NC(=O)[C@H](CCC(=O)O)NC(=O)[C@](C)(CCCCN)NC(=O)[C@H](C)NC(=O)[C@H](C)NC(=O)[C@H](CCC(=O)O)NC(=O)CNC(=O)[C@H](CCC(=O)O)NC(=O)[C@H](CC(C)C)NC(=O)[C@](C)(Cc1ccccc1)NC(=O)[C@H](CO)NC(=O)[C@](C)(CO)NC(=O)[C@@H](NC(=O)[C@H](CC(=O)O)NC(=O)[C@H](CO)NC(=O)[C@@H](NC(=O)[C@](C)(Cc1ccccc1)NC(=O)[C@H](CO)NC(=O)CNC(=O)[C@H](CCC(=O)O)NC(=O)C(C)(C)NC(=O)[C@@H](N)Cc1c[nH]cn1)[C@@H](C)O)C(C)C)C(=O)N[C@H](C(=O)N[C@@H](C)C(=O)N[C@@](C)(Cc1ccccc1)C(=O)N[C@H](C(=O)N[C@H](C(=O)N[C@@](C)(CCCCN)C(=O)NCC(=O)NCC(N)=O)C(C)C)C(C)C)[C@@H](C)CC)C(=O)O [compound 78] |
| ≥ 27 | ≥ 27 | 370 | 200 | 283 | ≥ 27 | ≥ 27 | CCCCCCCCCCCCCCCC(=O)N[C@@H](CCC(=O)NCCCC[C@H](NC(=O)[C@H](C)NC(=O)[C@H](CCC(=O)O)NC(=O)CNC(=O)[C@H](CCC(=O)O)NC(=O)[C@H](CC(C)C)NC(=O)[C@](C)(Cc1ccccc1)NC(=O)[C@H](CO)NC(=O)[C@](C)(CO)NC(=O)[C@@H](NC(=O)[C@H](CC(=O)O)NC(=O)[C@H](CO)NC(=O)[C@@H](NC(=O)[C@](C)(Cc1ccccc1)NC(=O)[C@H](CO)NC(=O)CNC(=O)[C@H](CCC(=O)O)NC(=O)C(C)(C)NC(=O)[C@@H](N)Cc1c[nH]cn1)[C@@H](C)O)C(C)C)C(=O)N[C@@](C)(CCCCN)C(=O)N[C@@H](CCC(=O)O)C(=O)N[C@@](C)(Cc1ccccc1)C(=O)N[C@H](C(=O)N[C@@H](C)C(=O)N[C@@](C)(Cc1ccccc1)C(=O)N[C@H](C(=O)N[C@H](C(=O)N[C@@](C)(CCCCN)C(=O)NCC(=O)NCC(N)=O)C(C)C)C(C)C)[C@@H](C)CC)C(=O)O [compound 81] (H-H[Aib]EGS[αMeF]TSDV[αMeS]S[αMeF]LEGEAK([γGlu-Palmitoyl])[αMeK]E[αMeF]IA[αMeF]VV[αMeK]GG-NH2; N-terminus assumed) |
| ≥ 28 | ≥ 28 | 66 | 140 | 101 | ≥ 28 | ≥ 28 | CCCCCCCCCCCCCCCC(=O)N[C@@H](CCC(=O)NCCCC[C@H](NC(=O)[C@H](CC(C)C)NC(=O)[C@](C)(Cc1ccccc1)NC(=O)[C@H](CO)NC(=O)[C@](C)(CO)NC(=O)[C@@H](NC(=O)[C@H](CC(=O)O)NC(=O)[C@H](CO)NC(=O)[C@@H](NC(=O)[C@](C)(Cc1ccccc1)NC(=O)[C@H](CO)NC(=O)CNC(=O)[C@H](CCC(=O)O)NC(=O)C(C)(C)NC(=O)[C@@H](N)Cc1c[nH]cn1)[C@@H](C)O)C(C)C)C(=O)NCC(=O)N[C@@H](CCC(=O)O)C(=O)N[C@@H](C)C(=O)N[C@@H](C)C(=O)N[C@@](C)(CCCCN)C(=O)N[C@@H](CCC(=O)O)C(=O)N[C@@](C)(Cc1ccccc1)C(=O)N[C@H](C(=O)N[C@@H](C)C(=O)N[C@@](C)(Cc1ccccc1)C(=O)N[C@H](C(=O)N[C@H](C(=O)N[C@@](C)(CCCCN)C(=O)NCC(=O)NCC(N)=O)C(C)C)C(C)C)[C@@H](C)CC)C(=O)O [compound 85] (H-H[Aib]EGS[αMeF]TSDV[αMeS]S[αMeF]LK([γGlu-Palmitoyl])GEAA[αMeK]E[αMeF]IA[αMeF]VV[αMeK]GG-NH2; N-terminus assumed) |
